Measured values as given in patent publication US11642336B2, “5-HT2A agonists for use in treatment of depression” (priority 2019, dated 2023).
Counter-ions that a name gives are not always drawn. Like-named read-outs stand apart in the source and are kept apart here. Marks after values point to notes of the source that are not given here.

Key:
Type in all cases: cell-based
human 5-HT2A [1] = target: T1, human 5-HT2A (Homo sapiens (Human), UniProt P28223); experiment: cell-based; details: for Selectivity EC50 5-HT2C/EC50 5-HT2A: Ca2+/Fluo-4 assay, bounds are conservative estimates
5-HT2C = 5-HT2C (Homo sapiens (Human), UniProt P28335); experiment: Ca2+/Fluo-4 assay, stable h5-HT2C-HEK293 cell line; details: for 5-HT2C Rmax ± S.E.M: % of the Rmax of 5-HT; for 5-HT2C agonist activity (n.a./w.a.): tested up to 50 μM;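 for all read-outs here: Agonist-induced intracellular Ca2+ rise read by Fluo-4 fluorescence in HEK293 cells stably expressing the human 5-HT2C receptor, each compound run in duplicate on three or more occasions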
Method: The functional properties of the compounds were characterised at stable HEK293 cell lines stably expressing the human 5-HT2A receptor or human 5-HT2C receptor in the Ca^2+/Fluo-4 assay essentially as previously described.^10 Briefly, the cells were split into poly-D-lysine-coated black 96-well plates with clear bottoms (6×10^4 cells/well). The following day the culture medium was aspirated and the cells were incubated in 50 μl assay buffer [Hanks Buffered Saline Solution containing 20 mM HEPES, 1 mM CaCl2, 1 mM MgCl2, 2.5 mM probenecid, pH 7.4] supplemented with 6 mM Fluo-4/AM at 37° C. for 1 hour. Next, the buffer was aspirated, the cells were washed once with 100 μl assay buffer, and then 100 μl assay buffer was added to the cells (in the antagonist experiments the compound was added at this point). […] The compounds were characterized in duplicate at least three times at each cell line.

human 5-HT2A [2] = target: T1, human 5-HT2A; experiment: cell-based; details: IP assay; for 5-HT2A Rmax: % of Rmax of 5-HT; for EC50: duplicate determinations
5-HT2B = 5-HT2B (Homo sapiens (Human), UniProt P41595); experiment: IP assay (Eurofins, IP1 HTRF), HEK293 cells; details: for 5-HT2B Rmax: % of Rmax of 5-HT; for Selectivity EC50 5-HT2B/EC50 5-HT2A: bounds are conservative estimates; for EC50: duplicate determinations, read-out: 5-HT2B EC50;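 for all read-outs here: agonist effect read as cellular IP1 production by HTRF using a europium cryptate anti-IP1 antibody donor and D2-labeled IP1 acceptor, eight compound concentrations in each cell line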
Method: The agonist properties of the compounds were characterized at HEK293 cell lines expressing the human 5-HT2A, human 5-HT2B or human 5-HT2C receptors in an IP assay essentially as previously described.^19 The testing was performed by Eurofins. In the assay, the agonist activity of the compound at the receptors is investigated by measuring its effect on IP1 production in the cell using the Homogeneous Time Resolved Fluorescence (HTRF) detection method. […] Following incubation, the cells were lysed, and the fluorescence acceptor (D2-labeled IP1) and fluorescence donor (anti-IP1 antibody labeled with europium cryptate) were added. […] The test compounds were characterized in eight different concentrations in duplicate at each of the three cell lines.

[3] = agonist potency, n = 3-4, read-out: 5-HT2A EC50
[4] = agonist potency, n = 3-4, read-out: 5-HT2C EC50
[5] = % of the Rmax of 5-HT, hydrochloride
[6] = agonist potency, n = 3-4, read-out: 5-HT2A [pEC50 ± S.E.M.] (converted)

5-HT2B, sequence (P41595 whole entry, looked up): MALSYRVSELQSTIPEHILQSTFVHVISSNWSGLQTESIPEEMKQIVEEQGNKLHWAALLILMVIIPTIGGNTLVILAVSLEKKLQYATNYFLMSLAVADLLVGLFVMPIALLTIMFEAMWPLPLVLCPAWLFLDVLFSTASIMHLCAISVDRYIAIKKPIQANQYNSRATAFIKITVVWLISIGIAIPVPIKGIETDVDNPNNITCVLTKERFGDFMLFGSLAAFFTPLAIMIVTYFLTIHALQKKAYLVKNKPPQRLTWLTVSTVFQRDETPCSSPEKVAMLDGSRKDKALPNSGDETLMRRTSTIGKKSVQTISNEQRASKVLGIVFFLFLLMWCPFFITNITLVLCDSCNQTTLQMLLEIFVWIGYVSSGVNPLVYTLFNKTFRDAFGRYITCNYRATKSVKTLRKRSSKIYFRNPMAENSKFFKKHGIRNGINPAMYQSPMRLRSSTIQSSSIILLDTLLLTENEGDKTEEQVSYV
5-HT2C, sequence (P28335 whole entry, looked up): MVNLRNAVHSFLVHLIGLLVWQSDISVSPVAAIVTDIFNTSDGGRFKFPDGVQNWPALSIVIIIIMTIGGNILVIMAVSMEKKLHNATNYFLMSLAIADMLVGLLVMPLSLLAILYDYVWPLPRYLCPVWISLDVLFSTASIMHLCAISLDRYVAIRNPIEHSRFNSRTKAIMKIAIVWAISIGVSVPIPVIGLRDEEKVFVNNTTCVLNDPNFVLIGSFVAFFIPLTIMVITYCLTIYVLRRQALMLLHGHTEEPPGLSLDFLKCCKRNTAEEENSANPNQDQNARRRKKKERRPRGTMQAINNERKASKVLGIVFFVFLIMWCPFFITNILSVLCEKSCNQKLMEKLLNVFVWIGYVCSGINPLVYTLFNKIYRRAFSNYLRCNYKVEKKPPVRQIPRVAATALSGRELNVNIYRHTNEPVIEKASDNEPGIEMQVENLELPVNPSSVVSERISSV

| Compound | 5-HT2A Rmax ± S.E.M (human 5-HT2A [1]; % of the Rmax of 5-HT) | Selectivity EC50 5-HT2C/EC50 5-HT2A (human 5-HT2A [1]) | EC50 (human 5-HT2A [1]; [3]) | EC50 (5-HT2C; [4]) | 5-HT2A Rmax (human 5-HT2A [2]) | EC50 (human 5-HT2A [2]) | 5-HT2B Rmax (5-HT2B) | Selectivity EC50 5-HT2B/EC50 5-HT2A (5-HT2B) | EC50 (5-HT2B) | EC50 (human 5-HT2A [1]; [6]) | also measured |
| --- | --- | --- | --- | --- | --- | --- | --- | --- | --- | --- | --- |
| COc1cc(C(F)(F)F)c(OC)cc1[C@@H]1CNC[C@@H](C)C1.Cl (relative stereo) [Compound 36, cis or trans 3-(2,5-dimethoxy-4-(trifluoromethyl)phenyl)-5-methylpiperidine hydrochloride] | 68 ± 2% | 8.2 | 48 nM | 400 nM | 61% | 41 nM | 39% | 2.9 | 120 nM |  | 5-HT2A [pEC50 ± S.E.M.] (human 5-HT2A [1]; agonist potency, n = 3-4): [7.32 ± 0.10]; 5-HT2C Rmax ± S.E.M (5-HT2C): 43 ± 6%; 5-HT2C [pEC50 ± S.E.M.] (5-HT2C; agonist potency, n = 3-4): [6.40 ± 0.09] |
| COc1cc(C(F)(F)F)c(OC)cc1C1CCC(C)NC1 (single isomer, unassigned) [Compound 37, 5-(2,5-dimethoxy-4-(trifluoromethyl)phenyl)-2-methylpiperidine hydrochloride] |  |  | 270 nM | 3400 nM |  | 1500 nM |  |  | 620 nM | 263 nM | 5-HT2A Rmax ± S.E.M (human 5-HT2A [1]; [5]): 90 ± 10%; Selectivity EC50 5-HT2C/EC50 5-HT2A (human 5-HT2A [1]; hydrochloride): 13; 5-HT2C Rmax ± S.E.M (5-HT2C): 33 ± 5%; 5-HT2A Rmax (human 5-HT2A [2]; hydrochloride): 110%; 5-HT2B Rmax (5-HT2B; hydrochloride): 54%; Selectivity EC50 5-HT2B/EC50 5-HT2A (5-HT2B; hydrochloride): 0.4 |
| COc1cc(C(F)(F)F)c(OC)cc1C1CCC(C)NC1 (single isomer, unassigned) [Compound 38, 5-(2,5-dimethoxy-4-(trifluoromethyl)phenyl)-2-methylpiperidine hydrochloride] |  |  | 160 nM |  |  | 120 nM |  |  | 2200 nM | 155 nM | 5-HT2A Rmax ± S.E.M (human 5-HT2A [1]; [5]): 38 ± 4%; Selectivity EC50 5-HT2C/EC50 5-HT2A (human 5-HT2A [1]; hydrochloride): >300^e; 5-HT2C agonist activity (n.a./w.a.) (5-HT2C): w.a.; 5-HT2A Rmax (human 5-HT2A [2]; hydrochloride): 60%; 5-HT2B Rmax (5-HT2B; hydrochloride): 29%; Selectivity EC50 5-HT2B/EC50 5-HT2A (5-HT2B; hydrochloride): 18 |
| COc1cc([C@@H]2CCCNC2)c(OC)cc1Cl [Compound 10, (S)-3-(4-Chloro-2,5-dimethoxyphenyl)piperidine] |  |  | 66 nM | > 50000 nM | 62% | 380 nM | 50% |  | 240 nM |  | 5-HT2C agonist activity (n.a./w.a.) (5-HT2C): n.a. [@ 50 μM]^a (no agonist activity: the compound did not evoke significant responses at concentrations up to 50 μM) |
| COc1cc([C@@H]2CCCNC2)c(OC)cc1Br [Compound 12, (S)-3-(4-bromo-2,5-dimethoxyphenyl)piperidine] |  |  | 69 nM | > 50000 nM | 70% | 250 nM | 48% |  | 190 nM |  |  |
| COc1cc([C@@H]2CCCNC2)c(OC)cc1I [Compound 14, (S)-3-(4-Iodo-2,5-dimethoxyphenyl)piperidine] |  |  |  | > 50000 nM | 72% | 45 nM | 57% |  | 170 nM | 37.2 nM |  |
| COc1cc([C@@H]2CCCNC2)c(OC)cc1C#N [Compound 16, (S)-2,5-dimethoxy-4-(piperidin-3-yl)benzonitrile] |  |  | 270 nM | > 50000 nM | 77% | 980 nM | 45% |  | 5000 nM | 275 nM |  |
| COc1cc([C@@H]2CCCNC2)c(OC)cc1SC.Cl [Compound 18, (S)-3-(2,5-dimethoxy-4-(methylthio)phenyl)piperidine hydrochloride] |  |  |  | 510 nM | 72% | 270 nM | 64% |  | 180 nM | 25.7 nM |  |
| CCOc1cc([C@@H]2CCCNC2)c(OC)cc1C(F)(F)F.Cl [Compound 20, (S)-3-(5-ethoxy-2-methoxy-4-(trifluoromethyl)phenyl)piperidine hydrochloride] | 95 ± 1% |  | 10 nM | 290 nM | 79% | 36 nM | 57% |  | 580 nM | 10.2 nM |  |
| CCOc1cc(C(F)(F)F)c(OCC)cc1[C@@H]1CCCNC1.Cl [Compound 22, (S)-3-(2,5-diethoxy-4-(trifluoromethyl)phenyl)piperidine hydrochloride] | 47 ± 6% | >300^e | 100 nM |  | 54% | 170 nM |  | >1,000^c | > 100000 nM | 102 nM |  |
| COc1cc([C@@H]2CCCNC2)c(OC)cc1C.Cl [Compound 24, (S)-3-(2,5-dimethoxy-4-methylphenyl)piperidine hydrochloride] |  |  | 100 nM |  | 67% | 560 nM | 38% |  | 360 nM | 105 nM |  |
| COc1cc([C@@H]2CCCNC2)c(OC)cc1SC(C)C [Compound 26, (S)-3-(4-(isopropylthio)-2,5-dimethoxyphenyl)piperidine] |  |  | 160 nM |  | 72% | 1100 nM | 43% |  | 1200 nM | 155 nM |  |
| CCSc1cc(OC)c([C@@H]2CCCNC2)cc1OC.Cl [Compound 28, (S)-3-(2,5-dimethoxy-4-(ethylthio)phenyl)piperidine hydrochloride] |  |  |  |  | 62% | 180 nM | 55% |  | 240 nM |  |  |
| CCOc1cc(C(F)(F)F)c(OC)cc1[C@@H]1CCCNC1.Cl [Compound 30, (S)-3-(2-ethoxy-5-methoxy-4-(trifluoromethyl)phenyl)piperidine hydrochloride] | 40 ± 3% |  |  |  | 35% | 140 nM | 26% |  | 1200 nM | 38 nM |  |
| CCc1cc(OC)c([C@@H]2CCCNC2)cc1OC.Cl [Compound 32, (S)-3-(4-ethyl-2,5-dimethoxyphenyl)piperidine hydrochloride] | 79 ± 4% |  |  |  | 85% | 110 nM | 54% |  | 280 nM | 40.7 nM |  |
| CCOc1cc([C@@H]2CCCNC2)c(OC)cc1CC.Cl [Compound 34, (S)-3-(5-ethoxy-4-ethyl-2-methoxyphenyl)piperidine hydrochloride] | 88 ± 4% | 16 | 52 nM | 840 nM | 78% | 160 nM | 50% | 5.4 | 860 nM | 51.3 nM | 5-HT2C Rmax ± S.E.M (5-HT2C): 28 ± 4% |
| COc1cc(C(F)(F)F)c(OC)cc1C1CCCNC1C.Cl (stereo not drawn) [Compound 35, 3-(2,5-dimethoxy-4-(trifluoromethyl)phenyl)-2-methylpiperidine hydrochloride] | 75 ± 4% | 41 | 73 nM | 3000 nM | 70% | 260 nM | 28% | 3.3 | 850 nM |  | 5-HT2C Rmax ± S.E.M (5-HT2C): 21 ± 2%; EC50 (5-HT2C; agonist potency, n = 3-4, read-out: 5-HT2C [pEC50 ± S.E.M.] (converted)): 2950 nM |
| COc1cc([C@@H]2CCCNC2)c(OCF)cc1C(F)(F)F [Compound 39, (S)-3-(2-(fluoromethoxy)-5-methoxy-4-(trifluoromethyl)phenyl)piperidine] | 40 ± 5% | >300^e | 150 nM |  | 60% | 300 nM | 54% | 3.6 | 1100 nM |  |  |
| CCOc1cc(CC)c(OC)cc1[C@@H]1CCCNC1 [Compound 43, (S)-3-(2-ethoxy-4-ethyl-5-methoxyphenyl)piperidine] | 42 ± 6% | >1,000^e | 140 nM | > 50000 nM | 45% | 670 nM | 11% | 1.6 | 1100 nM | 138 nM |  |
| COc1cc(C(F)(F)F)c(F)cc1[C@@H]1CCCNC1.Cl [Compound 51, (S)-3-(5-fluoro-2-methoxy-4-(trifluoromethyl)phenyl)piperidine hydrochloride] | 79 ± 5% | >100^e | 140 nM |  | 59% | 260 nM | 37% | 2.8 | 740 nM |  |  |
| COc1cc(C(F)(F)F)c(OC)cc1[C@@H]1CCCN(C)C1 [Compound 61, (S)-3-(2,5-dimethoxy-4-(trifluoromethyl)phenyl)-1-methylpiperidine] | 19 ± 2% |  | 390 nM | 920 nM |  |  |  |  |  | 398 nM | loss of potency at 5-HT2A compared to compound 8 (factor) (human 5-HT2A [1]; nitrogen substituents (tertiary amines)): ~20 |
| COc1cc(CC(C)N)c(OC)cc1I (stereo not drawn) [drawing 22, reference compound] |  |  |  |  |  |  |  |  |  |  | 5-HT2A Rmax ± S.E.M (human 5-HT2A [1]): 88 ± 7%; EC50 (5-HT2C; 5-HT2C [pEC50 ± S.E.M.], agonist potency, n = 3-4): 3.39 nM; 5-HT2C Rmax ± S.E.M (5-HT2C): 83 ± 8% |
